Test results published in ChEMBL document CHEMBL5532680, “Identification of a Sonically Activated Degrader of Methionine Adenosyltransferase 2A by an in Silico Approach Assisted with the Hole-Electron Analysis” (J Med Chem, 2024).
Activity calls are given as the source filed them. The rule behind the calls is not given here.

Key:
Cytochrome P450 2C19 = Cytochrome P450 2C19 (Homo sapiens, UniProt P33261); experiment: Inhibition of CYP2C19 (unknown origin); assay type: ADME
[1] = Half-life in ICR mouse at 10 mg/kg, po measured upto 24 hrs by LC-MS/MS analysis; assay type: ADME, organism-based; settings: in vivo
HCT-116 [2] = experiment: Induction of ROS generation in human HCT-116 cells assessed as fold increase at 0.1 uM preincubated for 6 hrs followed by sonication for 4 mins by DCFH-DA staining based flow cytometry analysis; assay type: functional; settings: time 364 min, 6.067 h
[3] = Biodistribution in MATP knocked out human HCT-116 cells xenografted in BALB/c mouse assessed as fluorescence intensity in lung at 10 mg/kg, po measured after 24 hrs; assay type: ADME, organism-based; settings: in vivo
HCT-116 [4] = experiment: Antiproliferative activity against wild type human HCT-116 cells at less than 1 uM incubated for 5 days by MTT method; assay type: functional, cell-based; settings: time 5.0 day
[5] = Apparent permeability in MDCKII-MDR1 cells; assay type: ADME, cell-based, Canis lupus familiaris; settings: dog, MDCK-MDR1
Cytochrome P450 2D6 = Cytochrome P450 2D6 (Homo sapiens, UniProt P10635); experiment: Inhibition of CYP2D6 (unknown origin); assay type: ADME
[6] = Drug localization in human HCT-116 cells cytoplasm assessed as bright red fluorescence at 1 uM by Hoechst 33342 staining based confocal assay; assay type: ADME, cell-based; settings: hct-116, 1 µM
[7] = Biodistribution in […] knocked out human HCT-116 cells xenografted in BALB/c mouse assessed as fluorescence intensity in kidney at 10 mg/kg, po measured after 24 hrs; assay type: ADME, organism-based; settings: in vivo
[8] = Toxicity in BALB/c mouse xenografted with human HCT-116 cells assessed as heart damage at 10 mg/kg, po by H and E staining based assay; assay type: organism-based; settings: in vivo
HCT-116 [9] = experiment: Antitumor activity against […] knocked out human HCT-116 cells xenografted in BALB/c mouse assessed as tumor regression at 10 mg/kg, po administered once a day followed by 4 mins sonication post 6 hrs of compound administration and measured for 3 weeks; assay type: functional
[10] = AUC in ICR mouse at 1 mg/kg, iv measured upto 24 hrs by LC-MS/MS analysis; assay type: ADME, organism-based; settings: in vivo
[11] = Oral bioavailability in ICR mouse at 10 mg/kg measured upto 24 hrs by LC-MS/MS analysis; assay type: ADME, organism-based; settings: in vivo
[12] = Biodistribution in MATP knocked out human HCT-116 cells xenografted in BALB/c mouse assessed as fluorescence intensity in tumor at 10 mg/kg, po measured after 24 hrs; assay type: ADME, organism-based; settings: in vivo
[13] = target: T1, S-adenosylmethionine synthase isoform type-2 (Homo sapiens, UniProt P31153); experiment: Inhibition of recombinant human MAT2A expressed in baculovirus infected Sf9 cells using L-methione as substrate preincubated for 15 mins followed by substrate addition and measured after 60 mins in presence of ATP by Kinase-Glo luminescent assay
Target sequence in this assay (P31153 whole entry, canonical isoform): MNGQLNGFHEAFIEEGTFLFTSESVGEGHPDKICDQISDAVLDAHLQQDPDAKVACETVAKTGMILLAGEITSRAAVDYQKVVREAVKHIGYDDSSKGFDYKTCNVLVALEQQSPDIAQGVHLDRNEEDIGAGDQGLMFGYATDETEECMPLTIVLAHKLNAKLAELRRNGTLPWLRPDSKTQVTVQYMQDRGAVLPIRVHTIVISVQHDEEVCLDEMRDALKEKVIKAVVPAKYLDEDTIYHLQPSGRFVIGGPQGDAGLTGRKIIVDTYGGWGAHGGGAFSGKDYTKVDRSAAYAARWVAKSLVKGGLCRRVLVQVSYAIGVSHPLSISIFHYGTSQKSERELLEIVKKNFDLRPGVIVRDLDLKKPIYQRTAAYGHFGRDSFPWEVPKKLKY

[14] = target: Voltage-gated inwardly rectifying potassium channel KCNH2 (Homo sapiens, UniProt Q12809); experiment: Inhibition of hERG by plate based patch clamp method; assay type: toxicity
[15] = Biodistribution in […] knocked out human HCT-116 cells xenografted in BALB/c mouse assessed as fluorescence intensity in heart at 10 mg/kg, po measured after 24 hrs; assay type: ADME, organism-based; settings: in vivo
[16] = Half-life in ICR mouse at 1 mg/kg, iv measured upto 24 hrs by LC-MS/MS analysis; assay type: ADME, organism-based; settings: in vivo
HCT-116 [17] = experiment: Induction of ROS generation in human HCT-116 cells at 0.001 to 1 uM incubated for 6 hrs by DCFH-DA staining based flow cytometry analysis; assay type: functional, cell-based; settings: dose 0.001-1 µM
[18] = target: T1, S-adenosylmethionine synthase isoform type-2; experiment: Induction of MAT2A degradation in human HCT-116 cells incubated for 4 hrs by Western blotting assay; assay type: cell-based
Target sequence in this assay (P31153 whole entry, looked up, canonical isoform): as the sequence (P31153 whole entry, canonical isoform) above

HCT-116 [19] = experiment: Induction of apoptosis in MTAP knocked out human HCT-116 cells at 0.1 uM preincubated for 24 hrs followed by sonication for 4 mins by annexin V-FITC/PI staining based flow cytometry analysis relative to control; assay type: functional, cell-based; settings: time 1444.0 min
[20] = Toxicity in BALB/c mouse xenografted with human HCT-116 cells assessed as spleen damage at 10 mg/kg, po by H and E staining based assay; assay type: organism-based; settings: in vivo
Cytochrome P450 2C9 = Cytochrome P450 2C9 (Homo sapiens, UniProt P11712); experiment: Inhibition of CYP2C9 (unknown origin); assay type: ADME
HCT-116 [21] = experiment: Antiproliferative activity against MTAP knocked out human HCT-116 cells under 4 mins sonication; assay type: functional, cell-based; settings: HCT-116, 4 min
[22] = Tmax in BALB/c mouse at 10 mg/kg, po measured upto 24 hrs by LC-MS/MS analysis; assay type: ADME, organism-based; settings: in vivo
HCT-116 [23] = experiment: Antiproliferative activity against MTAP knocked out human HCT-116 cells under 1 min sonication; assay type: functional, cell-based; settings: HCT-116, 1 min
MDR1 (P-gp) = experiment: Efflux ratio of apparent permeability in MDCKII-MDR1 cells; assay type: ADME, cell-based, Canis lupus familiaris; settings: dog, MDCK-MDR1
[24] = Toxicity in BALB/c mouse xenografted with human HCT-116 cells assessed as change in liver cell nucleus size at 100 mg/kg, po by H and E staining based assay; assay type: organism-based; settings: in vivo
[25] = Mean residence time in BALB/c mouse at 10 mg/kg, po measured upto 24 hrs by LC-MS/MS analysis; assay type: ADME, organism-based; settings: in vivo
HCT-116 [26] = experiment: Antiproliferative activity against wild type human HCT-116 cells preincubated with AG-270 followed by compound addition; assay type: functional, cell-based
[27] = Biodistribution in MATP knocked out human HCT-116 cells xenografted in BALB/c mouse assessed as fluorescence intensity in liver at 10 mg/kg, po measured after 24 hrs; assay type: ADME, organism-based; settings: in vivo
[28] = Oral bioavailability in BALB/c mouse at 10 mg/kg measured upto 24 hrs by LC-MS/MS analysis; assay type: ADME, organism-based; settings: in vivo
[29] = Toxicity in BALB/c mouse xenografted with human HCT-116 cells assessed as liver damage at 10 mg/kg, po by H and E staining based assay; assay type: organism-based; settings: in vivo
[30] = Tmax in ICR mouse at 10 mg/kg, po measured upto 24 hrs by LC-MS/MS analysis; assay type: ADME, organism-based; settings: in vivo
[31] = Toxicity in BALB/c mouse xenografted with human HCT-116 cells assessed as kidney damage at 10 mg/kg, po by H and E staining based assay; assay type: organism-based; settings: in vivo
[32] = Toxicity in BALB/c mouse xenografted with human HCT-116 cells assessed as change in liver cell nucleus shape at 100 mg/kg, po by H and E staining based assay; assay type: organism-based; settings: in vivo
[33] = Toxicity in BALB/c mouse xenografted with human HCT-116 cells assessed as kidney damage at 100 mg/kg, po by H and E staining based assay; assay type: organism-based; settings: in vivo
HCT-116 [34] = experiment: Antitumor activity against […] knocked out human HCT-116 cells xenografted in BALB/c mouse assessed as tumor growth inhibition at 100 mg/kg, po administered once a day for 6 hrs and measured after 3 weeks; assay type: functional; settings: HCT-116, 504 h, read-out: TGI
[35] = target: T1, S-adenosylmethionine synthase isoform type-2; experiment: Induction of MAT2A degradation in human HCT-116 cells assessed as MAT2A level at 0.1 uM preincubated for 4 hrs followed by 1.0 MHz, 0.8W/cm2 ultrasound treatment for 4 mins and measured upto 24 hrs by Western blotting assay; assay type: cell-based; settings: time <= 1684.0 min
Target sequence in this assay (P31153 whole entry, looked up, canonical isoform): as the sequence (P31153 whole entry, canonical isoform) above

Voltage-gated inwardly rectifying potassium channel KCNH2, sequence (Q12809 whole entry): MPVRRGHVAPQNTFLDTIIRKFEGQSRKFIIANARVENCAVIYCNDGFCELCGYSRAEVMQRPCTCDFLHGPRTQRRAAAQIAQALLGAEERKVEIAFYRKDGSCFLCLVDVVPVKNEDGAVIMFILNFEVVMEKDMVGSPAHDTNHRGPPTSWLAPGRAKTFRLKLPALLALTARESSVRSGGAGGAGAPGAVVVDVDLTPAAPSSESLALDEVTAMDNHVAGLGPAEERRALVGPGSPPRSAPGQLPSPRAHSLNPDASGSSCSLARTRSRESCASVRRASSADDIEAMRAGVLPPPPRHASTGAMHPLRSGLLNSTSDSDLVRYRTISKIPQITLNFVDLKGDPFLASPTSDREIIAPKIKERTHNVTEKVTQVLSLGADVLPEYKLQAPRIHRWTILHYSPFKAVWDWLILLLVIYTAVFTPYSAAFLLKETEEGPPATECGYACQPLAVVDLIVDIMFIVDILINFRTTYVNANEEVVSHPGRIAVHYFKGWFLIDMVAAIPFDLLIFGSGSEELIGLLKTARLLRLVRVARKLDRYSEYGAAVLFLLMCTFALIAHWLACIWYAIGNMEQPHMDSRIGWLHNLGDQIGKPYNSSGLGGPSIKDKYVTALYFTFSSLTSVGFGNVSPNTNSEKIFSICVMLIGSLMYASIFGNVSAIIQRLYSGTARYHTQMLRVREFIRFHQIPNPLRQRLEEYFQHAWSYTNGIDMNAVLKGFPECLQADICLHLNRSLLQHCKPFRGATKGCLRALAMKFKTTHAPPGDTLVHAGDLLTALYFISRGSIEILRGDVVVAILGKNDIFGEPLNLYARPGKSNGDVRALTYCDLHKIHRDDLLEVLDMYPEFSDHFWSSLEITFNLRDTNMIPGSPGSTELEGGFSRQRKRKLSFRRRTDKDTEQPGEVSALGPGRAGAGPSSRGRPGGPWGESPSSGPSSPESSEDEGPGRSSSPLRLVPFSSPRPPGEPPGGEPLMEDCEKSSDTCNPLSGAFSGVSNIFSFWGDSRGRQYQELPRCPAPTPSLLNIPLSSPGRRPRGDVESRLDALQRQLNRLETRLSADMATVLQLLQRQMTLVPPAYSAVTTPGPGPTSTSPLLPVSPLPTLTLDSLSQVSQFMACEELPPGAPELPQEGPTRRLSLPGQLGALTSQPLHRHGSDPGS
Cytochrome P450 2C19, sequence (P33261 whole entry): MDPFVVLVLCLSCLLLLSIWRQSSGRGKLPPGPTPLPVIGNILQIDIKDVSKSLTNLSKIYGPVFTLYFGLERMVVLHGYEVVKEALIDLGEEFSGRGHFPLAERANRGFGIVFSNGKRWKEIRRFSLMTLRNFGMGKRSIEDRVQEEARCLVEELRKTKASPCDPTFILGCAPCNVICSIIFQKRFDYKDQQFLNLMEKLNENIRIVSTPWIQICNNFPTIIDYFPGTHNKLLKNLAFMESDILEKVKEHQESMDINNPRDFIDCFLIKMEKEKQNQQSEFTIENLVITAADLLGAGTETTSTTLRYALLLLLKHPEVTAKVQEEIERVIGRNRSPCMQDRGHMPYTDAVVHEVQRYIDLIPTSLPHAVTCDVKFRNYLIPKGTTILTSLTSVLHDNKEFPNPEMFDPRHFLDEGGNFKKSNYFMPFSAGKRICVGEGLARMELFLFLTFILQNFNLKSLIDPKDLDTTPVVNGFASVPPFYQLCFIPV
Cytochrome P450 2D6, sequence (P10635 whole entry): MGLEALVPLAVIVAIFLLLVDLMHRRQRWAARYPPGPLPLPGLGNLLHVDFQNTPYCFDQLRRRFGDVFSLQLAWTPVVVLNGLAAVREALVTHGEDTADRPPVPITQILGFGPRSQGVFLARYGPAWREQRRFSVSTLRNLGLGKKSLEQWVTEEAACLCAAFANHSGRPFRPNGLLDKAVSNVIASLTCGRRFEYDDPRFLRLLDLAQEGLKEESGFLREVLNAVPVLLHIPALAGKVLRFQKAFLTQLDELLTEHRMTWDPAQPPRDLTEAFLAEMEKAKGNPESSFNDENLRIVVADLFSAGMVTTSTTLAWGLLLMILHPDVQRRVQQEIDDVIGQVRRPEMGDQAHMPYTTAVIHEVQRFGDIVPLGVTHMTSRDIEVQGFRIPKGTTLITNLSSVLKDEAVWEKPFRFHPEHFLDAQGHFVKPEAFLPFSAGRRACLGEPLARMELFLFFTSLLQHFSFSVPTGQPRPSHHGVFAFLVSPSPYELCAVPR
Cytochrome P450 2C9, sequence (P11712 whole entry): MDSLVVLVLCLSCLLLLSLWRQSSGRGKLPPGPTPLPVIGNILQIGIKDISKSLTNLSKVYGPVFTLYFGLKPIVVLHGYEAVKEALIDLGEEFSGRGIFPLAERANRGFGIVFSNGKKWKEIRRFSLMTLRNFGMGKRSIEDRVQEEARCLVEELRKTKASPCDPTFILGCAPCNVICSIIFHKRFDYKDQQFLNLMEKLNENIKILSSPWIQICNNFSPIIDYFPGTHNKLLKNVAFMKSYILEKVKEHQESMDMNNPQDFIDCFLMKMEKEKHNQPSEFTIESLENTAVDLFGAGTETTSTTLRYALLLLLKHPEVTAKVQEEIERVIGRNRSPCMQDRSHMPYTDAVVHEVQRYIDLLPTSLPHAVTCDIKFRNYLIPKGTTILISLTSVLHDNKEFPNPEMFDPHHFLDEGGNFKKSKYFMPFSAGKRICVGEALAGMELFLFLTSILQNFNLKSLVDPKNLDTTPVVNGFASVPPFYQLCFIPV

IC50 (Cytochrome P450 2C19): 16 µM
half-life [1]: 2.9 h
Drug uptake [3]: Active
Papp [5]: 13.4 ×10⁻⁶ cm/s
IC50 (Cytochrome P450 2D6): 39 µM
Drug uptake [6]: Active
Drug uptake [7]: Not Active
AUC [10]: 1267 ng·h/mL
bioavailability [11]: 77%
Drug uptake [12]: Active
IC50 [13]: 0.061 µM
Drug uptake [15]: Not Active
half-life [16]: 1.6 h
Activity [18]: inactive
IC50 (Cytochrome P450 2C9): 31 µM
IC50 (HCT-116 [21]): 0.042 µM
Tmax [22]: 1 h
IC50 (HCT-116 [23]): 0.079 µM
efflux ratio (MDR1 (P-gp)): 0.9
MRT [25]: 5.1 h
Drug uptake [27]: Active
F [28]: 77%
Tmax [30]: 0.5 h
Activity [35]: Active
SMILES: CCOc1ncc2cc(-c3ccc4c(c3)N3CCCC3CO4)c(=O)n(-c3ccc(OC(F)F)cc3)c2n1 (centres undefined)
fold change (FC) (HCT-116 [2]): 6
Activity (HCT-116 [4]): inactive
Activity [8]: Non-Toxic
Activity (HCT-116 [9]): 31%
IC50 [14]: > 50 µM
Activity (HCT-116 [17]): Active
Activity (HCT-116 [19]): Active
Activity [20]: Non-Toxic
Activity [24]: Toxic
Activity (HCT-116 [26]): inactive
Activity [29]: Non-Toxic
Activity [31]: Non-Toxic
Activity [32]: Toxic
Activity [33]: Non-Toxic
inhibition in vivo at 100 mg/kg (HCT-116 [34]): 96.5%
